This experiment concerns the target T1, human PAD4 (Homo sapiens, UniProt Q9UM07).
T1 construct: human PAD4 (NM_012387), A2P663, was PCR amplified; His-SUMO (N, cleaved yes); made in house; host or cells: E. coli BL21(DE3)
The experiment in a line: In vitro PAD4 BAEE biochemical assay. The following applies: human PAD4, BAEE substrate; 5 nM PAD4, 2 mM calcium chloride, 3 mM BAEE; geometric mean of multiple experiments. In outline:
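Tag-free recombinant hPAD4 (5 nM), 2 mM CaCl2, 3 mM BAEE, 50 mM MOPS pH 7.6, 2 mM DTT; 30 min compound preincubation, 2 h reaction, all 25 °C. EDTA quench; ammonia read via o-phthalaldehyde amine coupling, 1 h.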
T1 sequence (Q9UM07 2-663): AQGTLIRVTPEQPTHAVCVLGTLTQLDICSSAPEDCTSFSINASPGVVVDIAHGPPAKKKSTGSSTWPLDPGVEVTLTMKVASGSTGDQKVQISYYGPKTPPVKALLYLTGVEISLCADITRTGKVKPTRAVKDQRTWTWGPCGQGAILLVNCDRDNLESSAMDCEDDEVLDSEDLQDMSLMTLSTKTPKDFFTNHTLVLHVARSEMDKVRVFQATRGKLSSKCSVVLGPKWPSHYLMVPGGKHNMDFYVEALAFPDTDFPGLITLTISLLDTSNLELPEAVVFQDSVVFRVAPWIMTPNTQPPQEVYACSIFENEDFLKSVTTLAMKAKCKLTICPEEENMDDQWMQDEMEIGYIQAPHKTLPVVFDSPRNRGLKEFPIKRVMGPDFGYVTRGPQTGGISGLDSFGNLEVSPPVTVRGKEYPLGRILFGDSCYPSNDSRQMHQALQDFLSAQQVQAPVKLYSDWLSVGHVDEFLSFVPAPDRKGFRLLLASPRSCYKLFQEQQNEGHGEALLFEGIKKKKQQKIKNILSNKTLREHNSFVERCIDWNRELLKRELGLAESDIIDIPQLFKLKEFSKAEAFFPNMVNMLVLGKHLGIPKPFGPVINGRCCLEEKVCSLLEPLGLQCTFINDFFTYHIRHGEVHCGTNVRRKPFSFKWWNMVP
By IC50 is commonly meant the concentration that gives 50% inhibition. `CNC(=O)C1CC1c1c(-c2cc3ccc(N(C(F)F)S(C)(=O)=O)nc3n2CC2CC2)nc2cc(C(=O)N3CCC[C@@H](N)C3)ccn12` (some centres unmarked) [Example 431, 2-[7-[(3~{R})-3-aminopiperidine-1-carbonyl]-2-[1-(cyclopropylmethyl)-6-[difluoromethyl (methylsulfonyl)amino]pyrrolo[2,3-b]pyridin-2-yl]imidazo[1,2-a]pyridin-3-yl]-~{N}-methylcyclopropane-1-carboxamide]: the IC50 came out at 2030 nM.

`COc1cc(C(=O)N2[C@H]3CC[C@@H]2[C@H](N)C3)cc2nc(-c3cc4ccc(-c5ccccc5C)nc4n3CC3CC3)c(C)n12` [Example 550, [(1~{R},2~{R},4~{S})-2-amino-7-azabicyclo [2.2.1]heptan-7-yl]-[2-[1-(cyclopropylmethyl)-6-(2-methylphenyl)pyrrolo [2,3-b]pyridin-2-yl]-5-methoxy-3-methylimidazo [1,2-a]pyridin-7-yl]methanone]: the 50% inhibitory concentration (IC50) was determined as 1850 nM.

For the molecule `COc1cc(C(=O)N2CC[C@H]3OCCCN[C@H]3C2)cc2nc(-c3cc4ccc(N(C(F)F)S(C)(=O)=O)nc4n3CC3CC3)c(C)n12` [Example 359], the IC50 was 420 nM.

For `COc1cc(C(=O)N2[C@H]3CC[C@@H]2[C@H](N)C3)cc2nc(-c3cc4ccc([C@@H](C)NC(=O)c5cnc(C)o5)nc4n3CC3CC3)c(C)n12` [Example 80, ~{N}-[(1~{R})-1-[2-[7-[(1~{R},2~{R},4~{S})-2-amino-7-azabicyclo[2.2.1]heptane-7-carbonyl]-5-methoxy-3-methylimidazo [1,2-a]pyridin-2-yl]-1-(cyclopropylmethyl)pyrrolo [2,3-b]pyridin-6-yl]ethyl]-2-methyl-1,3-oxazole-5-carboxamide], the IC50 turned out to be 28.6 nM.

As to `CS(=O)(=O)N(c1ccc2cc(-c3nc4cc(C(=O)N5CC[C@@H](F)[C@@H](N)C5)ccn4c3C3CC3)n(CC3CC3)c2n1)C(F)F` [Example 394, ~{N}-[2-[7-[(3~{S},4~{R})-3-amino-4-fluoropiperidine-1-carbonyl]-3-cyclopropylimidazo[1,2-a]pyridin-2-yl]-1-(cyclopropylmethyl)pyrrolo [2,3-b]pyridin-6-yl]-~{N}-(difluoromethyl) methanesulfonamide], the 50% inhibitory concentration (IC50) came out at 1070 nM.

Take `COc1cc(C(=O)N2[C@H]3CC[C@@H]2[C@H](N)C3)cc2nc(-c3cc4ccc([C@H](C)CC(=O)N5CCCC5)nc4n3CC3CC3)c(C)n12` [Example 522, (3~{R})-3-[2-[7-[(1~{R},2~{R},4~{S})-2-amino-7-azabicyclo[2.2.1]heptane-7-carbonyl]-5-methoxy-3-methylimidazo [1,2-a]pyridin-2-yl]-1-(cyclopropylmethyl)pyrrolo[2,3-b]pyridin-6-yl]-1-pyrrolidin-1-ylbutan-1-one]: the IC50 was 135 nM.

As to `COc1cc(C(=O)N2[C@H]3CC[C@@H]2[C@H](N)C3)cc2nc(-c3cc4ccc([C@@H](C)NC(=O)C5CN(C(C)=O)C5)nc4n3CC3CC3)c(C)n12` [Example 149, 1-acetyl-~{N}-[(1~{R})-1-[2-[7-[(1~{R},2~{R},4~{S})-2-amino-7-azabicyclo [2.2.1]heptane-7-carbonyl]-5-methoxy-3-methylimidazo [1,2-a]pyridin-2-yl]-1-(cyclopropylmethyl)pyrrolo [2,3-b]pyridin-6-yl]ethyl] azetidine-3-carboxamide], the IC50 was determined as 77 nM.

On to `COc1cc(C(=O)N2[C@H]3CC[C@@H]2[C@H](N)C3)cc2nc(-c3cc4ccc([C@@H](C)NC(=O)c5ncco5)nc4n3CC3CC3)c(C)n12` [Example 73, ~{N}-[(1~{R})-1-[2-[7-[(1~{R},2~{R},4~{S})-2-amino-7-azabicyclo[2.2.1]heptane-7-carbonyl]-5-methoxy-3-methylimidazo [1,2-a]pyridin-2-yl]-1-(cyclopropylmethyl)pyrrolo [2,3-b]pyridin-6-yl]ethyl]-1,3-oxazole-2-carboxamide], for which the IC50 turned out to be 38.7 nM.

Consider `COc1cc(C(=O)N2[C@H]3CC[C@@H]2[C@H](N)C3)cc2nc(-c3cc4ccc([C@@H](C)NC(=O)N5CCCC5)nc4n3CC3CC3)c(C3CC3)n12` [Example 249, ~{N}-[(1~{R})-1-[2-[7-[(1~{R},2~{R},4~{S})-2-amino-7-azabicyclo[2.2.1]heptane-7-carbonyl]-3-cyclopropyl-5-methoxyimidazo[1,2-a]pyridin-2-yl]-1-(cyclopropylmethyl)pyrrolo [2,3-b]pyridin-6-yl]ethyl] pyrrolidine-1-carboxamide], for which the IC50 is 66 nM.

For `COc1cc(C(=O)N2[C@H]3CC[C@@H]2[C@H](N)C3)cc2nc(-c3cc4ccc([C@@H](C)NC(=O)C5(C)COC5)nc4n3CC3CC3)c(C)n12` [Example 166, ~{N}-[(1~{R})-1-[2-[7-[(1~{R},2~{R},4~{S})-2-amino-7-azabicyclo[2.2.1]heptane-7-carbonyl]-5-methoxy-3-methylimidazo [1,2-a]pyridin-2-yl]-1-(cyclopropylmethyl)pyrrolo [2,3-b]pyridin-6-yl]ethyl]-3-methyloxetane-3-carboxamide], the IC50 turned out to be 56 nM.

For `C=CCN[C@@H]1CC[C@@H]2CC[C@H]1N2C(=O)c1cc(OC)n2c(C)c(-c3cc4ccc(N(C(F)F)S(C)(=O)=O)nc4n3CC3CC3)nc2c1` [Example 390, ~{N}-[1-(cyclopropylmethyl)-2-[5-methoxy-3-methyl-7-[(1~{R},2~{R},5~{R})-2-(prop-2-enylamino)-8-azabicyclo[3.2.1]octane-8-carbonyl]imidazo[1,2-a]pyridin-2-yl]pyrrolo [2,3-b]pyridin-6-yl]-~{N}-(difluoromethyl) methanesulfonamide], the IC50 was determined as 3790 nM.

With `COc1cc(C(=O)N2[C@H]3CC[C@@H]2[C@H](N)C3)cc2nc(-c3cc4ccc(-c5cccnc5C)nc4n3CC3CC3)c(C)n12` [Example 575, ((1R,2R,4S)-2-amino-7-azabicyclo[2.2.1]heptan-7-yl)(2-(1-(cyclopropylmethyl)-6-(2-methylpyridin-3-yl)-1H-pyrrolo[2,3-b]pyridin-2-yl)-5-methoxy-3-methylimidazo[1,2-a]pyridin-7-yl)methanone], the IC50 was found to be 130 nM.

On to `COc1cc(C(=O)N2[C@H]3CC[C@@H]2[C@H](N)C3)cc2nc(-c3cc4ccc([C@@H](C)NC(=O)N5CC6CC6C5)nc4n3CC3CC3)c(C)n12` (some centres unmarked) [Example 246, ~{N}-[(1~{R})-1-[2-[7-[(1~{R},2~{R},4~{S})-2-amino-7-azabicyclo[2.2.1]heptane-7-carbonyl]-5-methoxy-3-methylimidazo [1,2-a]pyridin-2-yl]-1-(cyclopropylmethyl)pyrrolo [2,3-b]pyridin-6-yl]ethyl]-3-azabicyclo[3.1.0]hexane-3-carboxamide], for which the half-maximal inhibitory concentration (IC50) came to 82.2 nM.

Consider `COc1cc(C(=O)N2CC[C@H]3CCCN[C@H]3C2)cc2nc(-c3cc4ccc(N(C(F)F)S(C)(=O)=O)nc4n3CC3CC3)c(C3CC3)n12` [Example 310, ~{N}-[2-[7-[(4~{a}~{R},8~{a}~{R})-2,3,4,4~{a},5,6,8,8~{a}-octahydro-1~{H}-1,7-naphthyridine-7-carbonyl]-3-cyclopropyl-5-methoxyimidazo [1,2-a]pyridin-2-yl]-1-(cyclopropylmethyl)pyrrolo [2,3-b]pyridin-6-yl]-~{N}-(difluoromethyl) methanesulfonamide], for which the IC50 turned out to be 886 nM.

The values are drawn from patent publication US12240862B2, “Inhibitors of peptidylarginine deiminases” (Gilead Sciences, Inc., priority 2020, dated 2025).
